Laboratory results taken from PMC7382147, “An effective UFLC–MS/MS method used to study pharmacokinetics of major constituents of Fukeqianjin formula in rat plasma” (Chinese Medicine, 2020).
Each block holds one compound with its values, some of them ahead of it.

Assays:
[1] = Freeze–thaw stability of QC samples (−20 °C, three times); format: physicochemical, rat; conditions: plasma QC, freeze (−20 °C) and thaw three times
Procedure: (§1) Aliquots of 100 μL plasma samples were mixed with 10 μL I.S. samples (1 μg/mL, in MeOH), then added with 500 μL ACN, respectively, and vortexed for 5 min, centrifugated at 10,000 rpm for 10 min, the supernatants were transferred into clean vials and dried in a vacuum centrifugal concentrator at 1200 rpm, 37 °C. After that, 100 μL ACN was added and ultrasonic (frequency 40 kHz, power 250 W) extracted for 5 min to dissolve the dry residue, vortexed for 1 min and centrifugated at 10,000 rpm for 5 min, 1 μL of each final supernatant was injected into UFLC–MS/MS for analysis.
(§2) Six replicates of low, medium and high concentrations of quality control (QC) samples were used to verify the stabilities under different conditions including: place at room temperature for 8 h, freeze (− 20 °C) and thaw for three times, and store at − 20 °C for 20 days.

[2] = Pharmacokinetic study in rat plasma after oral administration of FKQJF extract (UFLC–MS/MS); format: in vivo, Sprague-Dawley (SD) rats; conditions: for AUC(0-inf) / AUC(0-t) / Cmax / half-life / MRT last / MRT inf / Tmax: Sprague-Dawley, oral FKQJF extract, single dose 3.2 g/kg, mean ± SD; for MRT last: read-out: MRT0→t; for MRT inf: read-out: MRT0→∞; for Tmax: read-out: Tmax
Procedure: as §1
An 8050 UFLC–MS/MS system equipped with LC-30A binary pump, a SIL-30AC autosampler, a SPD-M30A PDA detector, a CTO-20AC column oven, and a 8050 triple quadrupole mass spectrometer with an electrospray ionization source (ESI) was applied to detect and quantify FKQJF compounds in plasma samples. Data were acquired and processed with the software LabSolution (Ver. 5.6).
A Kinetex XB-C18 HPLC column (100 × 2.1 mm, 2.6 μm) linked with an equivalent guard column was used for chromatographic separation. The aqueous phase contained 0.2% formic acid was used as mobile phase A, and organic phase ACN as mobile phase B. The gradient elution method using in this program was: 3–5 min, 28–31% B; 5–7 min, 31–34% B; 7–9 min, 34–65% B; 9–10 min, 65–95% B; 10–11.5 min, 95% B. The flow rate of mobile phase, column temperature and autosampler temperature was 0.4 mL/min, 30 °C and 4 °C, respectively. The injection volume of each sample was set as 1 μL. The main MS spectrum parameters were set as follows: the flow rate of drying gas (N2) was 10.0 L/min; the atomized gas was 3.0 L/min and the heating gas flow rate was 10.0 L/min. The main temperatures of interface, desolvation and heat block was 300 °C, 250 °C and 400 °C, respectively. And, the interface and detector voltage were 3 kV and 1.8 kV.
Rats were divided into a blank group and a FKQJF administration group (6 rats for each), and fasted for 24 h. Each rat of the administration group was given FKQJF extract suspension at a single dose of 3.2 g FKQJF/kg body weight through oral administration in parallel. Blood samples (0.25 mL) were gathered from the orbital venous plexus of each rat, with FKQJF group gathered at 14 serial timepoints (6 rats for each) as 0.083 h, 0.16 h, 0.33 h, 0.5 h, 0.75 h, 1.0 h, 1.5 h, 2 h, 3 h, 4 h, 6 h, 8 h, 12 h and 24 h after drug administration. The blood samples were centrifugated at 6000g for 10 min to isolate plasma and stored at − 20 °C for further analysis.
Data were analyzed using the Drug and Statistics (DAS) Software version 2.0 (DAS 2.0, Mathematical Pharmacology Professional Committee of China, Shanghai, China). The non-compartmental mode was applied to obtain the following PK parameters: area under the plasma concentration–time curve from time zero to the time of last quantifiable concentration (AUC0→t) and area under the plasma concentration–time curve to time infinity (AUC0→∞), the elimination half-life (t1/2), mean retention time to last sampling time (MRT0→t) and mean retention time to infinity (MRT0→∞). The maximum plasma concentration (Cmax) and the time to maximum concentration (Tmax) were observed directly from the concentration–time (C–T) curves and measured data. All data are presented as mean ± SD.

[3] = Long-term stability of QC samples (−20 °C for 20 days); format: physicochemical, rat; conditions: plasma QC
Procedure: as §1, §2

[4] = Ordinary stability of QC samples (room temperature for 8 h); format: physicochemical, rat; conditions: plasma QC, room temperature 8 h
Procedure: as §1, §2

[5] = oral FKQJF extract 3.2 g/kg, post dose

Freeze–thaw stability Mean ([1]; spiked 50 ng/mL): 118.81%
Freeze–thaw stability Mean ([1]; spiked 250 ng/mL): 102.95%
Freeze–thaw stability Mean ([1]; spiked 500 ng/mL): 81.68%
AUC(0-inf) [2]: 0.375 ± 0.153 µg·h/mL
AUC(0-t) [2]: 0.37 ± 0.156 µg·h/mL
Cmax [2]: 0.192 ± 0.032 µg/mL
half-life [2]: 1.64 ± 0.52 h
MRT last [2]: 2.54 ± 1.12 h
MRT inf [2]: 3.13 ± 1.66 h
Tmax [2]: 1.33 ± 0.58 h
shape of the plasma concentration–time curve ([2]; oral FKQJF extract 3.2 g/kg): double-peaks
Long-term stability Mean ([3]; spiked 50 ng/mL): 95.03%
Long-term stability Mean ([3]; spiked 250 ng/mL): 81.88%
Long-term stability Mean ([3]; spiked 500 ng/mL): 107.95%
Ordinary stability Mean ([4]; spiked 50 ng/mL): 95.59%
Ordinary stability Mean ([4]; spiked 250 ng/mL): 82.57%
Ordinary stability Mean ([4]; spiked 500 ng/mL): 103.90%
Compound: COc1ccc(-c2coc3cc(O[C@@H]4O[C@H](CO)[C@@H](O)[C@H](O)[C@H]4O)ccc3c2=O)cc1 [Analyte 10, ononin]

Freeze–thaw stability Mean ([1]; spiked 60 ng/mL): 84.52%
Freeze–thaw stability Mean ([1]; spiked 300 ng/mL): 86.83%
Freeze–thaw stability Mean ([1]; spiked 600 ng/mL): 93.19%
AUC(0-inf) [2]: 0.48 ± 0.0719 µg·h/mL
AUC(0-t) [2]: 0.442 ± 0.0595 µg·h/mL
Cmax [2]: 0.186 ± 0.019 µg/mL
half-life [2]: 1.79 ± 0.2 h
MRT last [2]: 2.45 ± 0.19 h
MRT inf [2]: 3.1 ± 0.33 h
Tmax [2]: 1 ± 0.43 h
shape of the plasma concentration–time curve ([2]; oral FKQJF extract 3.2 g/kg): double-peaks
time of first peak of the concentration–time curve [2, 5]: 0 to 1 h
time of second peak of the concentration–time curve [2, 5]: 1.5 to 3 h
Long-term stability Mean ([3]; spiked 60 ng/mL): 115.89%
Long-term stability Mean ([3]; spiked 300 ng/mL): 94.37%
Long-term stability Mean ([3]; spiked 600 ng/mL): 96.64%
Ordinary stability Mean ([4]; spiked 60 ng/mL): 115.56%
Ordinary stability Mean ([4]; spiked 300 ng/mL): 107.50%
Ordinary stability Mean ([4]; spiked 600 ng/mL): 85.93%
Compound: C=C1CC[C@@H]2[C@](C)(CO)[C@H](O)CC[C@@]2(C)[C@@H]1C/C=C1/C(=O)OC[C@H]1O [Analyte 12, andrographolide]
